From patent US20210393597A1, “TARGETING THE TRANSCRIPTION FACTOR NF-KB WITH HARMINE” (DANA-FARBER CANCER INSTITUTE, INC., priority 2018, published 2021) come the findings set out here.

The structures appear in SMILES notation. “Also recorded” adds a separate entry of the source.

Holding throughout (type): cell-based
For assay [1], the system named is NF-κB target genes (BIRC3, TNFAIP3, IL-8). In words: qRT-PCR of NF-κB target gene expression in cancer cells. The protocol:
RNA was isolated using an RNeasy kit (Qiagen, Valencia, Calif.). cDNA was generated using the Taqman reverse transcription kit (Applied Biosystems, Foster City, Calif.). qRT-PCR was performed using Sybr Select or Power Sybr green master mix (Applied Biosystems). Samples were plated in triplicate and run on a 7300 or 7500 real time PCR machine (Applied Biosystems), using the indicated primers (Table 2). Target gene expression was normalized to actin, HPRT, or GAPDH. Data are expressed as mean fold change+/−SEM and are representative of at least two independent biological replicates.
(In general: Quantitative PCR measures a nucleic acid by following its amplification.)

In assay [2] the test system is p65. In words: Single cell nuclear translocation analysis, HeLa p65-EGFP cells. The following applies: 1 uM, imaged 18 hours. On the procedure: Hela cells stably expressing EGFP-tagged p65 were imaged for one hour prior to addition of either 1 uM Jak inhibitor 1 or 100 ng/mL TNF, and then for an additional 18 hours. Transmitted light and widefield epifluorescent images were captured at 10 min intervals using a BD Pathway 855 Bioimager with a 20× objective (0.75 NA; Olympus). Imaging was performed in an environmental chamber set to 37θC and 5% CO2. Five fields of view were analyzed per condition and the nuclear translocation of p65-EGFP was manually scored for each cell.

For assay [3], the system named is NF-κB. Kind of assay: Dual luciferase reporter assay, OVCAR8 cells transfected with NF-κB dependent reporter. The following applies: 24 hours. An excerpt:
(§1) Cells were transfected with firefly luciferase plasmids for STAT3 (m67-Luc) or NF-KB-Luc (Stratagene, Santa Clara, Calif.) and a Renilla luciferase plasmid (Promega, Madison, Wis.). The NF-κB-responsive cell line was generated with an NF-κB-responsive reporter plasmid (catalogue no. 219078; Strategene, La Jolla, Calif., incorporated herein by reference). Cells were also co-transfected with a plasmid expressing Renilla luciferase under a constitutive promoter for normalization (pRL-TK plasmid; Promega; Madison, Wis., incorporated herein by reference). Dual luciferase assays were performed as described (Walker et al., 2007 Oncogene, 26: 224-233, incorporated herein by reference).

The test system of assay [4] is NF-κB. Kind of assay: NF-κB-dependent luciferase reporter assay in NF-κB-Luc cells (Prestwick library screen and confirmation). The following applies: drug 1 hour, then TNF stimulation.
Source text: as §1
(§2) To identify NF-κB inhibitors, the Prestwick Chemical Library, which contains 1120 bioactive compounds, was screened for activity against cells expressing NF-κB-dependent luciferase (Nelson et al., 2008 Blood, 112(13):5095-102). To confirm the specificity of identified compounds, NF-κB-Luc and STAT3-Luc cells were treated with the indicated doses of drug for one hour followed by stimulation with TNF or IL-6 respectively for 6 hours. Luciferase activity was assessed using the Bright-Glo Luciferase Assay system (Promega).
Background: In a reporter assay the amount or activity of a reporter protein is the signal.

Assay [5] deals with p65. Kind of assay: Chromatin immunoprecipitation at NF-κB binding sites of target genes, OVCAR8 cells. The note with it: harmine pretreatment, TNF 30 minutes. On the procedure: SKBR3 cells stimulated with IL-6 for 30 minutes, OVCAR8 cells treated with harmine for 16 hours and then stimulated with TNF for 30 minutes, or U266 cells treated with Jak inhibitor 1 for 3 hours were analyzed by ChIP. Cross-linking was performed with 1% formaldehyde (0.37% for U266 cells) for 10 min at room temperature, followed by quenching of formaldehyde using 0.125 M glycine. ChIP was performed essentially as described (Nelson et al., 2004 J Biol Chem, 279(52):54724-30). Chromatin was sheared by sonication using a Qsonica Q700 sonicator with a microtip at approximately 75% amplitude. Anti-STAT3 antibody as described above, anti-p65 (Santa Cruz Biotechnology, sc-109), or anti-RNA polymerase II (Santa Cruz Biotechnology, sc-9001) were used. ChIP product was analyzed by qPCR using the following primers: RELB ([…] (SEQ ID NO: 34) and […] (SEQ ID NO: 35)), IL8 ([…] (SEQ ID NO: 36) and […] (SEQ ID NO: 37)), BIRC3 ([…] (SEQ ID NO: 38) and […] (SEQ ID NO: 39)), TNFAIP3 ([…] (SEQ ID NO: 40) and […] (SEQ ID NO: 41)). Data were normalized relative to input and a nonbinding region of the rhodopsin (RHO) gene (Walker et al., 2013 Mol Cell Biol, 33(15):2879-90).

The test system of another assay is U266 and OVCAR8 cells. Kind of assay: Quantitation of viable cell number, U266 and OVCAR8 cells, harmine with additional STAT3 inhibitors. The following applies: U266, 15 μM harmine, 3 μM TG101348; OVCAR8, 15 μM harmine, 5 μM pimozide; 72 hours. The protocol:
(§3) Cells were treated with the indicated drugs in 96 well plates for 48 to 72 hours. Viable cell number was assessed using ATP-dependent bioluminescence (Cell-TiterGlo; Promega). Data are expressed as average+/−SD of at least two replicates, and are representative of at least two separate experiments.

Another assay has as its system multiple myeloma cells. Kind of assay: Quantitation of viable cell number (Cell-TiterGlo), multiple myeloma cells. On the procedure: as §3
For assay [6], the system named is p65 and p50 NF-κB subunits. In words: Cellular fractionation and immunoblot of NF-κB subunits upon TNF stimulation, OVCAR8 cells. The note with it: 24 hours, then TNF. The protocol: (§4) Immunoblots were performed as described (Nelson et al., 2008 Blood, 112: 5095-5102). Nuclear and cytoplasmic fractions were isolated using the Nuclear Extract Kit (Active Motif North America, Carlsbad, Calif.). Antibodies were used recognizing phospho-tyrosine STAT3 (9131), PARP (9542), p65 (8242), RelB (4922) (Cell Signaling; Beverly, Mass.); actin (A-5316) and tubulin (T-5168) (Sigma); and STAT3 (sc-482), p50 (sc-7178), and calnexin (sc-11397) (Santa Cruz Biotechnology; Santa Cruz, Calif.).
(In general: A western blot detects proteins with antibodies after separation by electrophoresis.)

In the next assay the test system is INA6 cells. Kind of assay: Apoptosis by PARP cleavage immunoblot, INA6 cells. The note with it: 24 hours. The protocol: as §4
The next assay has as its system STAT3. In words: STAT3-dependent luciferase reporter counterscreen in STAT3-Luc cells. The note with it: drug one hour, then IL-6 for 6 hours. The protocol:
as §2

[7] abbreviates: OVCAR8 cells, 24 hours, qRT-PCR.

For the molecule `CCN1/C(=C/C(C)=O)Sc2ccc(O)cc21` [INDY], in assay [1] (setting [7]), the “NF-κB target gene expression” value is “did not inhibit”.
Take `CC(C)(C)c1nc2c3cc[nH]c(=O)c3c3cc(F)ccc3c2[nH]1` [Jak inhibitor 1]: the p65 nuclear translocation entry in the assay on p65 [2] is listed as “not significantly altered”. For the same molecule, the “NF-κB target gene expression (IL-8)” value in assay [1] (A498 renal carcinoma cells, 24 hours) is “enhanced”. Also, the “NF-κB target gene expression” value in assay [1] (INA-6 MM cells, 22-24 hours) was “enhanced”; in [1] (MDA-MB-468 breast cancer cells, 1 μM, 28 hours), “enhanced”; in assay [1] (setting [7]), “enhanced”. Further, the “NF-κB reporter luciferase activity” value with NF-κB [3] is “enhanced”.
In the case of `COc1ccc2c(c1)[nH]c1c(C)nccc12` [harmine], the “NF-κB-dependent luciferase activity (transcriptional activity of NF-κB)” value is “identified as an NF-κB inhibitor” in the assay with NF-κB [4] and “inhibitor of NF-κB-dependent luciferase; also recorded: inhibited” in the assay on NF-κB [4] (listed as Harmine). Also, in the assay with p65 [5], the “RNA polymerase II binding at NF-κB target genes (ChIP)” value was “reduced”. Further, the “p65 binding at NF-κB binding sites of target genes (ChIP)” value in the assay on p65 [5] is given as “reduced”. The “cell killing in combination with additional STAT3 inhibitors (relative viable cell number)” value in the assay with U266 and OVCAR8 cells is reported as “enhanced killing”. In addition, the “cell killing in combination with Jak inhibitor 1 (relative viable cell number)” value in the assay on multiple myeloma cells (INA6, 5 μM harmine, 0.25 μM Jak inhibitor 1, 72 hours) was “synergistic cell killing”. Also, the “viability of multiple myeloma cells (relative viable cell number)” value with multiple myeloma cells (cells containing activated NF-κB (INA6, U266, MA/11.S), 72 hours) was “inhibited the viability”. Besides, the “nuclear accumulation of p65 and p50” value in assay [6] was “no effect”. For the same molecule, the “induction of NF-κB target genes induced by Jak inhibitor 1” value in assay [1] (OVCAR8 cells, 24 hours, harmine together with Jak inhibitor 1) is listed as “completely suppressed”. In addition, in [1] (setting [7]), the “NF-κB target gene expression” value was “reduced; also recorded: inhibited”. Further, the “apoptosis measured by PARP cleavage, combination with Jak inhibitor 1” value with INA6 cells is reported as “enhanced apoptosis”. Further, in the assay on STAT3, the STAT3-dependent luciferase activity result is on record as “little effect; also recorded: not inhibiting”.
As for `O=C(N/N=C/c1ccc([N+](=O)[O-])o1)c1ccc(O)cc1` [nifuroxazide], the “NF-κB target gene expression” value in assay [1] (INA-6 MM cells, 22-24 hours) is recorded as “upregulation”; in assay [1] (setting [7]), “upregulation”.
